Assay results taken from ChEMBL document CHEMBL5214956, “Structure-based design and modular synthesis of novel PI4K class II inhibitors bearing a 4-aminoquinazoline scaffold” (Bioorg Med Chem Lett, 2022).

How the values were obtained:
[1] = target: Phosphatidylinositol 4-kinase alpha (Homo sapiens, UniProt P42356); assay: Inhibition of PI4KA catalytic domain (unknown origin) assessed as enzyme residual activity incubated for 60 mins using ATP as substrate by ATP-Glo luminescent assay
[2] = target: Phosphatidylinositol 4-kinase beta (Homo sapiens, UniProt Q9UBF8); assay: Inhibition of PI4KB catalytic domain (unknown origin) assessed as enzyme residual activity incubated for 60 mins using ATP as substrate by ATP-Glo luminescent assay
Chain of Phosphatidylinositol 4-kinase beta (Q9UBF8 whole entry, the tested form may be a part): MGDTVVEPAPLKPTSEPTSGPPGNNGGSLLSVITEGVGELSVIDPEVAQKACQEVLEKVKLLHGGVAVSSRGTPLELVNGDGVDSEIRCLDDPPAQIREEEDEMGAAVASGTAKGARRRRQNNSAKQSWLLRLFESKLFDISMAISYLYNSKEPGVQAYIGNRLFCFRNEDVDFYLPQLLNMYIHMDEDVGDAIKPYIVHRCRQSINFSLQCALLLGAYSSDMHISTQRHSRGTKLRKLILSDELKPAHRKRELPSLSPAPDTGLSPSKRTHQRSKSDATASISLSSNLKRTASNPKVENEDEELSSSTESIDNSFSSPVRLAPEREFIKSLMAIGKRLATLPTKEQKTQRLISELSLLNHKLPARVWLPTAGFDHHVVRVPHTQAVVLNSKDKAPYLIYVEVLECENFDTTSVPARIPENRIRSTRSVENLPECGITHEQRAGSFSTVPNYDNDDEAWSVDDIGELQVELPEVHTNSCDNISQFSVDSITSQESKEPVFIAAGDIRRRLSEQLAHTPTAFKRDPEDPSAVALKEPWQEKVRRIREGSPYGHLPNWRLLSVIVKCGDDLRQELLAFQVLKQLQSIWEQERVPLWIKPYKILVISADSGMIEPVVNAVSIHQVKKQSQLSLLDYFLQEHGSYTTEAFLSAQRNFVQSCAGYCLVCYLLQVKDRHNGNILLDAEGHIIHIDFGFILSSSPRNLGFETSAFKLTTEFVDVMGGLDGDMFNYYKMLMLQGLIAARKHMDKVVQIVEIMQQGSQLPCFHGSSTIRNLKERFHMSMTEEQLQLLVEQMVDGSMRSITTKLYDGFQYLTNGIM

[3] = target: Phosphatidylinositol 4-kinase type 2-alpha (Homo sapiens, UniProt Q9BTU6); assay: Inhibition of PI4K2A catalytic domain (unknown origin) assessed as enzyme residual activity incubated for 60 mins using ATP as substrate by ATP-Glo luminescent assay
Chain of Phosphatidylinositol 4-kinase type 2-alpha (Q9BTU6 whole entry, the tested form may be a part): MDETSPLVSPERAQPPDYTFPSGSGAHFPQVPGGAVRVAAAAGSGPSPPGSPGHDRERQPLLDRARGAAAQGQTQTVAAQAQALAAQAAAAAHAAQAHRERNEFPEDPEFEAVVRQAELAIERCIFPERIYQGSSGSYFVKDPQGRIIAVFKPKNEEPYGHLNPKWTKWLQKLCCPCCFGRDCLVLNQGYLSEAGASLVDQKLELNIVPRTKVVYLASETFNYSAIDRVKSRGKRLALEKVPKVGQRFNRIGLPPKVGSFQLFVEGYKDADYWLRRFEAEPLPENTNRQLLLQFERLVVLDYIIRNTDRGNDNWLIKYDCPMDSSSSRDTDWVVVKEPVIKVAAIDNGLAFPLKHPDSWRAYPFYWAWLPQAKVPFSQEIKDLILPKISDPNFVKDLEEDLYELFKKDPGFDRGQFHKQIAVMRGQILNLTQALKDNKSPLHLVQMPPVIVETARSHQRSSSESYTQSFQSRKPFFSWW

Chain of Phosphatidylinositol 4-kinase alpha (P42356 whole entry, the tested form may be a part): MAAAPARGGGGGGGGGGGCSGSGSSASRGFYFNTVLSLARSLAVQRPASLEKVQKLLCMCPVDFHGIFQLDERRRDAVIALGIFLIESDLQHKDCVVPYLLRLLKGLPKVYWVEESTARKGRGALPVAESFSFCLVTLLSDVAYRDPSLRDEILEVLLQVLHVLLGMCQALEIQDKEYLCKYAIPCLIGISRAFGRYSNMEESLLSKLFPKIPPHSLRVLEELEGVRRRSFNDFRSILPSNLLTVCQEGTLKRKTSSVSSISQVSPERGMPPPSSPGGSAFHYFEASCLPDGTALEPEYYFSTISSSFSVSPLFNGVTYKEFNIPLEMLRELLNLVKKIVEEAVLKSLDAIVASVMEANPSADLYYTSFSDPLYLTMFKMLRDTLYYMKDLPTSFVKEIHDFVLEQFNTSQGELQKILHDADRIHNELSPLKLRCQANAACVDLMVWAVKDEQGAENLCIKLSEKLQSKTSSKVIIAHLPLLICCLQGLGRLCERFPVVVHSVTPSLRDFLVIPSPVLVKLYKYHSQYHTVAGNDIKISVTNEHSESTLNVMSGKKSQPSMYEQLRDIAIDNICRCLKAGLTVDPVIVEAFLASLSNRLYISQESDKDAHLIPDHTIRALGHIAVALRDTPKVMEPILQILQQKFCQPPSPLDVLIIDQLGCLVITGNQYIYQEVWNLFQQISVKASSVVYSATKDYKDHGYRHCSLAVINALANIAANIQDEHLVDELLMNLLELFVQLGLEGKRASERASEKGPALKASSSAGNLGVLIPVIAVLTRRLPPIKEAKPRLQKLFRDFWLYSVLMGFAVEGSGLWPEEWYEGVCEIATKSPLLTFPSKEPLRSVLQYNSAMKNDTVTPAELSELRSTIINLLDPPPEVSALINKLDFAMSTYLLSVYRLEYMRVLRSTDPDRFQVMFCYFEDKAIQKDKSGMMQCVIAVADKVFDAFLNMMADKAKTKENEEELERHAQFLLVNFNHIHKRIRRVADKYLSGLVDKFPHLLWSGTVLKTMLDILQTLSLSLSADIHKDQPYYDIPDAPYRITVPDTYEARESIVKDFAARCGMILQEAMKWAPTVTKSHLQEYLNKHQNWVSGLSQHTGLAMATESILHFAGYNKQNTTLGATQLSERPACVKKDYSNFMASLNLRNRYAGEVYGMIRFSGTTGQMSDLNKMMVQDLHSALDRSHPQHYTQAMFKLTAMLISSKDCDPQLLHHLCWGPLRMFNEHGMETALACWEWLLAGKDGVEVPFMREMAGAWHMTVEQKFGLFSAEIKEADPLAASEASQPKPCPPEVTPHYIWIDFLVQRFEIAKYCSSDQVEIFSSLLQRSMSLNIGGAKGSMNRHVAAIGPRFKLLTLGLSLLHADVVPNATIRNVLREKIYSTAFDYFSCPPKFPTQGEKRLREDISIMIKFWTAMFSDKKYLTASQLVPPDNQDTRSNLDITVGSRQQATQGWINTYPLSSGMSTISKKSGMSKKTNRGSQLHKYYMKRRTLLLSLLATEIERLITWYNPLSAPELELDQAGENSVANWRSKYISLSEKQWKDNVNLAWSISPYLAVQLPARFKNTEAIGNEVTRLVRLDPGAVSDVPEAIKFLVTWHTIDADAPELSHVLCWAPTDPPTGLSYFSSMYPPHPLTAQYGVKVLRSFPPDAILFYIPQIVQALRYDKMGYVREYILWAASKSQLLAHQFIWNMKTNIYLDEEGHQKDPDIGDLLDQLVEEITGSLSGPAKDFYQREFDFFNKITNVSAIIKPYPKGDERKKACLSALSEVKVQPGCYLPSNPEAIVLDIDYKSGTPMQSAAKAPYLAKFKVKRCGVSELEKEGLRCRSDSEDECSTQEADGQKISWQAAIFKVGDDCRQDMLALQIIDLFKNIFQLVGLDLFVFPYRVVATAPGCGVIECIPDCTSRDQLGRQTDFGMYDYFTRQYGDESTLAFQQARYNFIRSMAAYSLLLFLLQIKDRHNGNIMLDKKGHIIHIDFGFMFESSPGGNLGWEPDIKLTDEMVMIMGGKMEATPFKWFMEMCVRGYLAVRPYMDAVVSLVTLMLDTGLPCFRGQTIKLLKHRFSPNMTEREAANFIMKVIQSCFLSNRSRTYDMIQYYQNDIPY

| SMILES | IC50 [1] [µM] | IC50 [2] [µM] | IC50 [3] [µM] |
| --- | --- | --- | --- |
| NC(=O)c1cc2c(N)ncnc2cc1-c1ccc2[nH]cnc2c1 | > 50 |  |  |
| NC(=O)c1cc2c(N)ncnc2cc1-c1cccc(CO)c1 | > 50 | > 50 |  |
| CCCCc1cc(=O)oc2cc(OCC(=O)N[C@@H](Cc3c[nH]c4ccc(O)cc34)C(=O)O)ccc12 | > 50 | > 50 | 1.46 |
| NC(=O)c1cc2c(N)ncnc2cc1-c1ccc2c(c1)OCO2 | > 50 | > 50 |  |
| NC(=O)c1cc2c(N)ncnc2cc1-c1ccc2c(c1)CCO2 | > 50 | > 50 |  |
| NC(=O)c1cc2c(N)ncnc2cc1-c1cncc(CO)c1 |  |  | > 50 |
| NC(=O)c1cc2c(N)ncnc2cc1-c1ccc2cc[nH]c2c1 | > 50 | > 50 |  |
| COC[C@H]1OC(=O)c2coc3c2[C@@]1(C)C1=C(C3=O)[C@@H]2CCC(=O)[C@@]2(C)C[C@H]1OC(C)=O [WORTMANNIN] | 0.28 | 0.44 | > 30 |
| CC(=O)Nc1cccc(-c2cc3ncnc(N)c3cc2C(N)=O)c1 | > 50 | > 50 |  |
| Nc1ncnc2c1ncn2[C@@H]1C[C@@]2(CO)CC[C@@H]1C2 | > 50 | > 50 |  |
| NC(=O)c1cc2c(N)ncnc2cc1-c1ccc2[nH]ccc2c1 | > 50 | > 50 |  |
| NC(=O)c1cc2c(N)ncnc2cc1-c1ccc(CO)o1 |  |  | > 50 |
